Source: paper PMC11585924, “Direct measurements of neurosteroid binding to specific sites on GABAA receptors” (British journal of pharmacology, 2024)

How the values were obtained:
Format in all cases: binding
ELIC-α1^W246LGABAAR [1] = target: T1, ELIC-α1^W246LGABAAR (Homo sapiens, UniProt P14867, W273L); assay: Inhibition of MQ290 FRET by NS in W246L receptors; conditions: 30 μM NS; MQ290 1 μM
Procedure: (§1) One hundred microlitres of ELIC-α1GABAAR (0.3 μM) was transferred into a 50-μl window quartz cuvette maintained at 4°C, and NaI was added to the protein sample to a final concentration of 100 mM and incubated for 10 min. MQ290 was then added at a concentration of 3 μM for 3α-OH NS inhibition curves or 1 μM for 3β-OH NS inhibition curves and incubated for 30 min. One-microlitre aliquots of 3α-OH and 3β-OH NS from their corresponding stock solutions (prepared in Buffer A + 0.015% DDM) were added to achieve concentrations between 0.01 and 30 μM. The background emission spectra of ligands alone were obtained for each ligand concentration in the absence of protein and were subtracted from the protein-ligand emission spectra to yield background subtracted data. The MQ290 FRET spectra for different ligand concentrations were estimated using the method described above. The 370-nm intensities of the FRET spectra were plotted against ligand concentration and fitted to a four-parameter logistic curve to obtain IC50 data (GraphPad Software version 9.4.0, San Diego, CA). Ki values were calculated using the relationship: Ki=IC50/1+LT/Kd

ELIC-α1^W246LGABAAR [2] = target: T1, ELIC-α1^W246LGABAAR; assay: biochemical
Procedure: ELIC-α1GABAAR was expressed and purified according to a previously published protocol ([Q. Chen et al., 2018]). The purified protein was aliquoted and stored at −80°C. Mutagenesis was performed as described in previous reports ([Kinde et al., 2016]) by oligonucleotide-directed mutagenesis using Phu polymerase (Thermo Fisher Scientific, Waltham, MA, USA) verified by sequencing. ELIC-α1GABAAR was expressed in OverExpress™ C43(D3) E. coli, derived from Rosetta™(DE3) cells under double selection with kanamycin and chloramphenicol for ELIC-α1GABAAR.
One hundred microlitres of purified ELIC-α1GABAAR (0.3 μM in Buffer A + 0.015% DDM) was transferred into a 50-μl window quartz cuvette (Starna Cells, Atascadero, CA, USA), which was placed in a cuvette holder maintained at 4°C. […] Two microlitres of NaI (AK Scientific, Union City, CA, USA; 5-M stock prepared in 0.1-Mm sodium hydrosulfite [Sigma-Aldrich, St. Louis, MO, USA]) was added to the protein (final concentration = 100 mM) and incubated for 10 min to reduce the fluorescence emission from hydrophilic tryptophans. To measure the concentration–dependent effects of NS on tryptophan fluorescence, 1 μl of NS from each 100× stock solution was sequentially added to the NaI-equilibrated protein and thoroughly mixed to achieve concentrations from 0.01 to 50 μM. […]

ELIC-α1GABAAR = ELIC-α1GABAAR (Homo sapiens, UniProt P14867)
ELIC-α1GABAAR, sequence (P14867 other isoform, or with tags, fused parts or gaps): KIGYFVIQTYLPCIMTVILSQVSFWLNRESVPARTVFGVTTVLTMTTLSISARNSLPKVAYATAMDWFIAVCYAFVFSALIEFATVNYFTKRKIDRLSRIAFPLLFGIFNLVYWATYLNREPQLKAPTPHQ
ELIC-α1GABAAR, sequence (P0C7B7 1-198, further chain): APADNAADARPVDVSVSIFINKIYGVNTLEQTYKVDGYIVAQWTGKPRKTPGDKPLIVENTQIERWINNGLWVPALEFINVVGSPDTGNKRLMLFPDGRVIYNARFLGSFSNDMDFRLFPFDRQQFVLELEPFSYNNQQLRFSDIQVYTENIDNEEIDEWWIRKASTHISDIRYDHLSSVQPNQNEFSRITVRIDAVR
Procedure: as §1
where LT is the concentration of MQ290 and Kd was determined from the MQ290 binding curve.

T1 sequence (P14867 other isoform, or with tags, fused parts or gaps W273L): as the sequence (P14867 other isoform, or with tags, fused parts or gaps) above, with W25L counted along it
T1 sequence (P0C7B7 1-198, further chain): as the sequence (P0C7B7 1-198, further chain) above

Structure (SMILES): CC(=O)[C@H]1CC[C@H]2[C@@H]3CC[C@H]4C[C@@H](O)CC[C@]4(C)[C@H]3CC[C@]12C [Epi-AlloP, epi-allopregnanolone]
- inhibition of remaining MQ290 FRET signal in W246L (ELIC-α1^W246LGABAAR [1]): reduced by neither
- IC50 (ELIC-α1^W246LGABAAR [2]): 340 ± 130 nM
- Hill slope (ELIC-α1GABAAR; 3β-OH NS, MQ290 1 μM): −0.68 ± 0.45
- mechanism of inhibition of MQ290 binding (ELIC-α1GABAAR; MQ290 binding curves with 3×Kd and 30 μM NS): allosteric mechanism of inhibition
